Where a name gives a salt, the structure may show the parent alone.
Assays:
[1] = relative stability of crystalline forms; format: physicochemical
[2] = challenge stability study, stability-indicating HPLC assay and physical description; format: physicochemical; conditions: sealed vials
Method: A challenge stability study was carried out with amorphous and crystalline forms. Samples were stored in sealed vials and stored at room temperature (25° C.) and 40° C. Samples were assayed at various times with a stability-indicating HPLC assay. Retained potency was determined and physical description was observed.

[3] = 25° C., 8 days, hemioxalate salt
[4] = 25° C., 12 days, hemioxalate salt
[5] = 40° C., 5 days, hemioxalate salt

| Compound | stability relative to Form A [1] | % Purity (by peak area) [2, 3] [%] | Physical Description [2, 3] | % Purity (by peak area) [2, 4] [%] | Physical Description [2, 4] | % Purity (by peak area) [2, 5] [%] | Physical Description [2, 5] | Physical Description ([2]; Time zero) | % Purity (by peak area) ([2]; Time zero, hemioxalate salt) [%] |
| --- | --- | --- | --- | --- | --- | --- | --- | --- | --- |
| CO[C@@H]1[C@H](OC(=O)/C=C/c2ccc(OCCN(C)C)cc2)CCC2(CO2)[C@H]1C1(C)OC1CC=C(C)C (some centres unmarked) [Form B, 6-O-(4-dimethylaminoethoxy)cinnamoyl fumagillol hemioxalate] | metastable relative to Form A |  |  |  |  |  |  |  |  |
| CO[C@@H]1[C@H](OC(=O)/C=C/c2ccc(OCCN(C)C)cc2)CCC2(CO2)[C@H]1C1(C)OC1CC=C(C)C (some centres unmarked) [Amorphous, 6-O-(4-dimethylaminoethoxy)cinnamoyl fumagillol hemioxalate salt] |  | 86.58 | White powder | 83.88 | White powder | 86.91 | White powder | Free flowing | 94.98 |
| CO[C@@H]1[C@H](OC(=O)/C=C/c2ccc(OCCN(C)C)cc2)CCC2(CO2)[C@H]1C1(C)OC1CC=C(C)C (some centres unmarked) [Crystalline, 6-O-(4-dimethylaminoethoxy)cinnamoyl fumagillol hemioxalate salt] |  | 97.86 | Free flowing | 97.84 | Free flowing | 97.72 | Free flowing | Free flowing | 97.91 |

From patent US9260419B2, “Polymorphic salt of a metap-2 inhibitor and methods of making and using same” (Zafgen, Inc., priority 2012, dated 2016)
